Source: US10336732B2, “1-heterocyclyl isochromanyl compounds and analogs for treating CNS disorders” (Sunovion Pharmaceuticals Inc., priority 2015, dated 2019)

The compounds below were run on mice (assay: Neuropharmacological assay (SmartCube), behavioral signature of compound-treated mice). Settings: i.p. 15 min before behavioral test, most efficacious dose(s) of 3 doses.
Format: in vivo
Procedure, shortened: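 Mice received compound i.p. in NMP/PEG/propylene glycol vehicle at 3 doses, 15 min before testing. Video-captured behavior was algorithmically compared with a reference-drug signature database.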

Row | Compound | AD: ADHD (probability that behavioral signature matches class) | AG: analgesic (probability that behavioral signature matches class) | AX: anxiolytic (probability that behavioral signature matches class) | CE: cognitive enhancer (probability that behavioral signature matches class) | DP: anti-depressant (probability that behavioral signature matches class) | HA: hallucinogen (probability that behavioral signature matches class) | MS: mood stabilizer (probability that behavioral signature matches class) | PS: anti-psychotic (probability that behavioral signature matches class) | SD: sedative hypnotic (probability that behavioral signature matches class) | UN: uncharacterized CNS activity (probability that behavioral signature matches class)
1 | Fc1ccc2c(c1)[C@H]([C@@H]1CCN1)OCC2 [Compound I-86, (S)-2-((R)-7-fluoroisochroman-1-yl)azetidine] | + (LOQ ≤ + <5%) | +++ (25% ≤ +++ <50%) | +++ (25% ≤ +++ <50%) | ++ (5% ≤ ++ <25%) | ++ (5% ≤ ++ <25%) | + (LOQ ≤ + <5%) | + (LOQ ≤ + <5%) | +++ (25% ≤ +++ <50%) | ++ (5% ≤ ++ <25%) | ++ (5% ≤ ++ <25%)
2 | Fc1ccc2c(c1)[C@H]([C@H]1CCN1)OCC2 [Compound I-87, (R)-2-((R)-7-fluoroisochroman-1-yl)azetidine] | + (LOQ ≤ + <5%) | ++ (5% ≤ ++ <25%) | ++ (5% ≤ ++ <25%) | + (LOQ ≤ + <5%) | ++ (5% ≤ ++ <25%) | + (LOQ ≤ + <5%) | + (LOQ ≤ + <5%) | +++ (25% ≤ +++ <50%) | + (LOQ ≤ + <5%) | ++ (5% ≤ ++ <25%)
3 | Fc1ccc2c(c1)[C@@H]([C@H]1CCN1)OCC2 [Compound I-88, (R)-2-((S)-7-fluoroisochroman-1-yl)azetidine] | + (LOQ ≤ + <5%) | ++ (5% ≤ ++ <25%) | +++ (25% ≤ +++ <50%) | ++ (5% ≤ ++ <25%) | ++ (5% ≤ ++ <25%) | + (LOQ ≤ + <5%) | + (LOQ ≤ + <5%) | ++ (5% ≤ ++ <25%) | + (LOQ ≤ + <5%) | +++ (25% ≤ +++ <50%)
4 | Fc1ccc2c(c1)CCO[C@@H]2[C@@H]1CCN1 [Compound I-89, (S)-2-((S)-6-fluoroisochroman-1-yl)azetidine] | ++ (5% ≤ ++ <25%) | ++ (5% ≤ ++ <25%) | ++ (5% ≤ ++ <25%) | ++ (5% ≤ ++ <25%) | +++ (25% ≤ +++ <50%) | + (LOQ ≤ + <5%) | ++ (5% ≤ ++ <25%) | +++ (25% ≤ +++ <50%) | + (LOQ ≤ + <5%) | + (LOQ ≤ + <5%)
5 | Fc1ccc2c(c1)CCO[C@@H]2[C@H]1CCN1 [Compound I-91, (R)-2-((S)-6-fluoroisochroman-1-yl)azetidine] | + (LOQ ≤ + <5%) | ++ (5% ≤ ++ <25%) | ++ (5% ≤ ++ <25%) | ++ (5% ≤ ++ <25%) | ++ (5% ≤ ++ <25%) | + (LOQ ≤ + <5%) | + (LOQ ≤ + <5%) | +++ (25% ≤ +++ <50%) | ++ (5% ≤ ++ <25%) | ++ (5% ≤ ++ <25%)
6 | Fc1ccc2c(c1)CCO[C@H]2[C@H]1CCN1 [Compound I-92, (R)-2-((R)-6-fluoroisochroman-1-yl)azetidine] | + (LOQ ≤ + <5%) | ++ (5% ≤ ++ <25%) | ++ (5% ≤ ++ <25%) | +++ (25% ≤ +++ <50%) | ++ (5% ≤ ++ <25%) | + (LOQ ≤ + <5%) | ++ (5% ≤ ++ <25%) | +++ (25% ≤ +++ <50%) | + (LOQ ≤ + <5%) | + (LOQ ≤ + <5%)
7 | Fc1cccc2c1CCO[C@H]2[C@@H]1CCN1 [Compound I-93, (S)-2-((R)-5-fluoroisochroman-1-yl)azetidine] | ++ (5% ≤ ++ <25%) | +++ (25% ≤ +++ <50%) | ++ (5% ≤ ++ <25%) | ++ (5% ≤ ++ <25%) | +++ (25% ≤ +++ <50%) | + (LOQ ≤ + <5%) | + (LOQ ≤ + <5%) | ++ (5% ≤ ++ <25%) | ++ (5% ≤ ++ <25%) | ++ (5% ≤ ++ <25%)
8 | Fc1cccc2c1CCO[C@H]2[C@H]1CCN1 [Compound I-95, (R)-2-((R)-5-fluoroisochroman-1-yl)azetidine] | + (LOQ ≤ + <5%) | +++ (25% ≤ +++ <50%) | ++ (5% ≤ ++ <25%) | ++ (5% ≤ ++ <25%) | ++ (5% ≤ ++ <25%) | + (LOQ ≤ + <5%) | + (LOQ ≤ + <5%) | ++ (5% ≤ ++ <25%) | + (LOQ ≤ + <5%) | + (LOQ ≤ + <5%)
9 | c1ccc2c(c1)CCCO[C@@H]2[C@@H]1CCCN1 [Compound I-97, (S)-2-((S)-1,3,4,5-tetrahydrobenzo[c]oxepin-1-yl)pyrrolidine] | + (LOQ ≤ + <5%) | +++ (25% ≤ +++ <50%) | ++ (5% ≤ ++ <25%) | ++ (5% ≤ ++ <25%) | ++ (5% ≤ ++ <25%) | + (LOQ ≤ + <5%) | ++ (5% ≤ ++ <25%) | +++ (25% ≤ +++ <50%) | ++ (5% ≤ ++ <25%) | + (LOQ ≤ + <5%)
10 | c1ccc2c(c1)CCCO[C@H]2[C@@H]1CCCN1 [Compound I-98, (S)-2-((R)-1,3,4,5-tetrahydrobenzo[c]oxepin-1-yl)pyrrolidine] | + (LOQ ≤ + <5%) | + (LOQ ≤ + <5%) | ++ (5% ≤ ++ <25%) | + (LOQ ≤ + <5%) | +++ (25% ≤ +++ <50%) | + (LOQ ≤ + <5%) | ++ (5% ≤ ++ <25%) | +++ (25% ≤ +++ <50%) | ++ (5% ≤ ++ <25%) | + (LOQ ≤ + <5%)
11 | c1ccc2c(c1)CCCO[C@@H]2[C@H]1CCCN1 [Compound I-99, (R)-2-((S)-1,3,4,5-tetrahydrobenzo[c]oxepin-1-yl)pyrrolidine] | + (LOQ ≤ + <5%) | ++ (5% ≤ ++ <25%) | ++ (5% ≤ ++ <25%) | ++ (5% ≤ ++ <25%) | +++ (25% ≤ +++ <50%) | + (LOQ ≤ + <5%) | + (LOQ ≤ + <5%) | ++ (5% ≤ ++ <25%) | ++ (5% ≤ ++ <25%) | + (LOQ ≤ + <5%)

Same assay, conditions: i.p. 15 min before behavioral test, most efficacious dose(s) of 3 doses

Row | Compound | XG: anxiogenic (probability that behavioral signature matches class)
12 | Fc1ccc2c(c1)[C@H]([C@@H]1CCN1)OCC2 [Compound I-86, (S)-2-((R)-7-fluoroisochroman-1-yl)azetidine] | + (LOQ ≤ + <5%)
13 | Fc1ccc2c(c1)[C@H]([C@H]1CCN1)OCC2 [Compound I-87, (R)-2-((R)-7-fluoroisochroman-1-yl)azetidine] | + (LOQ ≤ + <5%)
14 | Fc1ccc2c(c1)[C@@H]([C@H]1CCN1)OCC2 [Compound I-88, (R)-2-((S)-7-fluoroisochroman-1-yl)azetidine] | + (LOQ ≤ + <5%)
15 | Fc1ccc2c(c1)CCO[C@@H]2[C@@H]1CCN1 [Compound I-89, (S)-2-((S)-6-fluoroisochroman-1-yl)azetidine] | + (LOQ ≤ + <5%)
16 | Fc1ccc2c(c1)CCO[C@@H]2[C@H]1CCN1 [Compound I-91, (R)-2-((S)-6-fluoroisochroman-1-yl)azetidine] | + (LOQ ≤ + <5%)
17 | Fc1ccc2c(c1)CCO[C@H]2[C@H]1CCN1 [Compound I-92, (R)-2-((R)-6-fluoroisochroman-1-yl)azetidine] | + (LOQ ≤ + <5%)
18 | Fc1cccc2c1CCO[C@H]2[C@@H]1CCN1 [Compound I-93, (S)-2-((R)-5-fluoroisochroman-1-yl)azetidine] | + (LOQ ≤ + <5%)
19 | Fc1cccc2c1CCO[C@H]2[C@H]1CCN1 [Compound I-95, (R)-2-((R)-5-fluoroisochroman-1-yl)azetidine] | + (LOQ ≤ + <5%)
20 | c1ccc2c(c1)CCCO[C@@H]2[C@@H]1CCCN1 [Compound I-97, (S)-2-((S)-1,3,4,5-tetrahydrobenzo[c]oxepin-1-yl)pyrrolidine] | + (LOQ ≤ + <5%)
21 | c1ccc2c(c1)CCCO[C@H]2[C@@H]1CCCN1 [Compound I-98, (S)-2-((R)-1,3,4,5-tetrahydrobenzo[c]oxepin-1-yl)pyrrolidine] | + (LOQ ≤ + <5%)
22 | c1ccc2c(c1)CCCO[C@@H]2[C@H]1CCCN1 [Compound I-99, (R)-2-((S)-1,3,4,5-tetrahydrobenzo[c]oxepin-1-yl)pyrrolidine] | + (LOQ ≤ + <5%)
